# Reference: patent publication US8846653B2, “Delta-tocotrienol treatment and prevention of pancreatic cancer” (University of South Florida, priority 2006, dated 2014)
# Assays:
# Type in all cases: cell-based, human
# [1] = test system: MiaPaCa-2 cells; assay: MTT assay of MiaPaCa2 cultures, single 50 μM dose; design: rel amt (relative value set to the control): unit not given here; settings: MiaPaCa2, 50 μM; for MTT assay result, av-blank: average minus blank; for MTT assay result, av: average of 7 runs
# Procedure: MiaPaCa-2, BxPc-3, and HPDE6-C7 cells were cultured as described above, and treated with a single 50 μM dose of vehicle (ethanol extracted olive oil), T3 alpha (alpha tocotrienol), T3 beta (beta tocotrienol), T3 gamma (gamma tocotrienol), T3 delta (delta tocotrienol), T alpha (alpha tocopherol), T beta (beta tocopherol), TS (tocopherol succinate), GG (geranylgeraniol), SA (succinic acid). A control culture (vehicle only with no treatment) was grown alongside the treatments for comparison. Cell viability was measured using MTT assay at preselect times of 48 or 120 hours after treatment.
# [2] = test system: BXPC3 cells; assay: MTT assay of BXPC3 cultures, single 50 μM dose; design: MTT assay result, run 1 / MTT assay result, run 2 / MTT assay result, run 3 / MTT assay result, run 4 / MTT assay result, run 5 / MTT assay result, run 6 / MTT assay result, run 7 / MTT assay result, av (average) / MTT assay result, av-blank / MTT assay result, av: unit not given here; settings: BXPC3, 50 μM; for MTT assay result, av-blank: average minus blank
# Procedure: BXPC3 cells were cultured in complete […] media containing 10% fetal bovine serum (FBS) and 1% penicillin-streptomycin, and 1% L-glutamine. BxPc-3 pancreatic cancer cells were cultured in complete RPMI media containing 10% fetal bovine serum (FBS), and 1% penicillin-streptomycin, 1% HEPES buffer, 1% sodium pyruvate and 1% L-glutamine HPDE6-C7 cells were cultured in serum-free keratinocyte SFM media. All cells were maintained at 37° C. in a humidified incubator with 5% CO2. The cells were treated with a single 50 μM dose of vehicle (vehicle only, may be a solvent), T3 alpha (alpha tocotrienol), T3 beta (beta tocotrienol), T3 gamma (gamma tocotrienol), T3 delta (delta tocotrienol), T alpha (alpha tocopherol), T beta (beta tocopherol), TS (tocopherol succinate), GG (geranylgeraniol), SA (succinic acid). A control (no treatment) culture was grown alongside the treatments for comparison. Cell viability was measured using MTT assay at preselect times of 48 or 120 hours after treatment.
# [3] = test system: SW1990 pancreatic cancer cells; assay: MTS assay of SW1990 cultures, single 50 μM dose; settings: SW1990, 50 μM
# Procedure: SW1990 pancreatic cancer cells […] were cultured in complete DMEM media containing 10% fetal bovine serum (FBS) and 1% penicillin-streptomycin, and 1% L-glutamine. BxPc-3 pancreatic cancer cells were cultured in complete RPMI media containing 10% fetal bovine serum (FBS), and 1% penicillin-streptomycin, 1% HEPES buffer, 1% sodium pyruvate and 1% L-glutamine. HPDE6-C7 cells were cultured in serum-free keratinocyte SFM media. All cells were maintained at 37° C. in a humidified incubator with 5% CO2. The cells were treated with a single 50 μM dose of vehicle (ethanol extracted olive oil), T3 alpha (alpha tocotrienol), T3 beta (beta tocotrienol), T3 gamma (gamma tocotrienol), T3 delta (delta tocotrienol), T alpha (alpha tocopherol), T beta (beta tocopherol), TS (tocopherol succinate), GG (geranylgeraniol), SA (succinic acid). A control culture (i.e., only vehicle with no treatment) was grown alongside the treatments for comparison. Cell viability was measured using MTS assay at preselect times of 24, 48, or 72 hours after treatment.
structure (smiles),measurement,setting,value
Cc1c(O)cc2c(c1C)O[C@](C)(CCC[C@H](C)CCC[C@H](C)CCCC(C)C)CC2 [T gamma],rel amt (relative value set to the control),[1]; 48 hours,94
same,"MTT assay result, av-blank",[1]; 48 hours,0.292
same,"MTT assay result, av",[1]; 48 hours,0.338
same,"MTT assay result, run 1",[1]; 48 hours,0.35
same,"MTT assay result, run 2",[1]; 48 hours,0.323
same,"MTT assay result, run 3",[1]; 48 hours,0.312
same,"MTT assay result, run 4",[1]; 48 hours,0.36
same,"MTT assay result, run 5",[1]; 48 hours,0.348
same,"MTT assay result, run 6",[1]; 48 hours,0.328
same,"MTT assay result, run 7",[1]; 48 hours,0.348
same,rel amt (relative value set to the control),[1]; 120 hours (5 days),87
same,"MTT assay result, av-blank",[1]; 120 hours (5 days),1.566
same,"MTT assay result, av",[1]; 120 hours (5 days),1.618
same,"MTT assay result, run 1",[1]; 120 hours (5 days),1.52
same,"MTT assay result, run 2",[1]; 120 hours (5 days),1.516
same,"MTT assay result, run 3",[1]; 120 hours (5 days),1.547
same,"MTT assay result, run 4",[1]; 120 hours (5 days),1.625
same,"MTT assay result, run 5",[1]; 120 hours (5 days),1.917
same,"MTT assay result, run 6",[1]; 120 hours (5 days),1.568
same,"MTT assay result, run 7",[1]; 120 hours (5 days),1.635
same,rel amt (relative value set to the control),[2]; 48 hours,115
same,"MTT assay result, av-blank",[2]; 48 hours,0.262
same,"MTT assay result, av (average)","[2]; 48 hours, average of 7 runs",0.311
same,"MTT assay result, run 1",[2]; 48 hours,0.32
same,"MTT assay result, run 2",[2]; 48 hours,0.356
same,"MTT assay result, run 3",[2]; 48 hours,0.335
same,"MTT assay result, run 4",[2]; 48 hours,0.304
same,"MTT assay result, run 5",[2]; 48 hours,0.277
same,"MTT assay result, run 6",[2]; 48 hours,0.28
same,"MTT assay result, run 7",[2]; 48 hours,0.306
same,rel amt (relative value set to the control),[2]; 120 hours (5 days),103
same,"MTT assay result, av-blank",[2]; 120 hours (5 days),0.595
same,"MTT assay result, av","[2]; 120 hours (5 days), average of 7 runs",0.650
same,"MTT assay result, run 1",[2]; 120 hours (5 days),0.628
same,"MTT assay result, run 2",[2]; 120 hours (5 days),0.66
same,"MTT assay result, run 3",[2]; 120 hours (5 days),0.653
same,"MTT assay result, run 4",[2]; 120 hours (5 days),0.649
same,"MTT assay result, run 5",[2]; 120 hours (5 days),0.682
same,"MTT assay result, run 6",[2]; 120 hours (5 days),0.615
same,"MTT assay result, run 7",[2]; 120 hours (5 days),0.661
same,rel amnt (relative value set to the control),[3]; 24 hours,116
same,"MTS assay result, run 1",[3]; 24 hours,0.175
same,"MTS assay result, run 2",[3]; 24 hours,0.165
same,"MTS assay result, run 3",[3]; 24 hours,0.167
same,"MTS assay result, run 4",[3]; 24 hours,0.154
same,"MTS assay result, run 5",[3]; 24 hours,0.198
same,"MTS assay result, run 6",[3]; 24 hours,0.168
same,"MTS assay result, run 7",[3]; 24 hours,0.178
same,"MTS assay result, run 8",[3]; 24 hours,0.16
same,"MTS assay result, run 9",[3]; 24 hours,0.171
same,rel amnt (relative value set to the control),[3]; 48 hours,94
same,"MTS assay result, run 1",[3]; 48 hours,0.131
same,"MTS assay result, run 2",[3]; 48 hours,0.133
same,"MTS assay result, run 3",[3]; 48 hours,0.14
same,"MTS assay result, run 4",[3]; 48 hours,0.141
same,"MTS assay result, run 5",[3]; 48 hours,0.142
same,"MTS assay result, run 6",[3]; 48 hours,0.122
same,"MTS assay result, run 7",[3]; 48 hours,0.16
same,"MTS assay result, run 8",[3]; 48 hours,0.164
same,"MTS assay result, run 9",[3]; 48 hours,0.142
same,rel amnt (relative value set to the control),[3]; 72 hours,108
same,"MTS assay result, run 1",[3]; 72 hours,0.5
same,"MTS assay result, run 2",[3]; 72 hours,0.497
same,"MTS assay result, run 3",[3]; 72 hours,0.46
same,"MTS assay result, run 4",[3]; 72 hours,0.505
same,"MTS assay result, run 5",[3]; 72 hours,0.515
same,"MTS assay result, run 6",[3]; 72 hours,0.469
same,"MTS assay result, run 7",[3]; 72 hours,0.43
same,"MTS assay result, run 8",[3]; 72 hours,0.451
same,"MTS assay result, run 9",[3]; 72 hours,0.478
